Drawing on patent US12552748B2, “Pyridine (thio)amides as fungicidal compounds” (Bayer Aktiengesellschaft, priority 2020, dated 2026), this text covers LogP and chromatographic logP for 65 molecules.

This series can be described thus: physchem. The series is classed as physicochemical. As for the experimental part: Measurement of Log P values as provided herein was performed according to EEC directive 79/831 Annex V.A8 by HPLC (High Performance Liquid Chromatography) on reversed phase columns with the following methods: […] If more than one Log P value is available within the same method, all the values are given and separated by “+”. Calibration was done with straight-chain alkan2-ones (with 3 to 16 carbon atoms) with known Log P values (measurement of Log P values using retention times with linear interpolation between successive alkanones). Lambda-max-values were determined using UV-spectra from 200 nm to 400 nm and the peak values of the chromatographic signals

The chromatographic logP is a lipophilicity value derived from retention on a column. Read a high chromatographic logP as higher lipophilicity.

Marks after values point to notes of the source that are not given here.

As for `O=C(O)c1cc(Cl)ncc1Oc1cccc(C2CC2)c1` [Compound 1-010], the LogP was 2.87^[a].

As for `O=C(O)c1cc(Cl)ncc1Oc1cccc(C2CC2)c1F` [Compound 1-009], the LogP was 2.97^[a].

In the case of `O=C(NCCc1csc2ccc(Cl)cc12)c1cc(Cl)ncc1Oc1cccc(C(F)(F)F)c1` [Compound I-213], the LogP was 5.00^[a].

Take `O=C(NCCc1cnc(C(F)(F)F)nc1)c1cc(Cl)ncc1Oc1cccc(C(F)(F)F)c1` [Compound I-110]: the LogP was 3.57^[a].

For the molecule `COc1cc(C(F)CNC(=O)c2cc(Cl)ncc2Oc2cccc(C(F)(F)F)c2)ccc1Cl` (racemic) [Compound I-081], the LogP was 4.37^[a].

Turning to `Cc1ccc(CCNC(=O)c2cc(Cl)ncc2Oc2cccc(Br)c2F)c(C)c1` [Compound I-134], the LogP is 4.78^[a].

For `O=C(NCCc1ccc2c(c1)OCO2)c1cc(Cl)ncc1Oc1cccc(C(F)(F)F)c1` [Compound I-108], the LogP was 3.87^[a].

Regarding `COc1cccc(Oc2cnc(Cl)cc2C(=O)O)c1` [Compound 1-007], the LogP is 2.34^[a].

For `Cc1ccc(C(F)CNC(=O)c2cc(C)ncc2Oc2cccc(C(F)F)c2)c(Cl)c1` (centres unmarked) [Compound I-224], the LogP was 3.63^[a].

Consider `COC(=O)c1cccc(Oc2cnc(Cl)cc2C(=O)NCCc2ccc(C)cc2C)c1` [Compound I-147], for which the LogP was 4.20^[a].

Turning to `Cc1ccc(CCNC(=O)c2cc(Cl)ncc2Oc2cccc(N(C)C)c2)c(C)c1` [Compound I-170], the LogP was 4.83^[a].

As for `CON(CCc1ccc(Cl)cc1Cl)C(=O)c1cc(Cl)ncc1Oc1cccc(C(F)(F)F)c1` [Compound I-177], the LogP was 5.24^[a].

In the case of `CO/N=C(\C)c1cc(C(=O)NCCc2ccc(C)cc2C)c(Oc2cccc(C(F)(F)F)c2)cn1` [Compound I-093], the LogP is 5.36^[a].

As for `Cc1cc(C(=O)NCC(F)c2ccc(Cl)cc2Cl)c(Oc2cccc(Cl)c2)cn1` (racemic) [Compound I-053], the LogP is 4.12^[a].

With `O=C(NCCc1ccc2[nH]cnc2c1)c1cc(Cl)ncc1Oc1cccc(C(F)(F)F)c1` [Compound I-197], the LogP is 1.82^[a].

For `N#Cc1nc(Cl)cc(C(=O)O)c1Oc1cccc(C(F)(F)F)c1` [Compound 1-016], the LogP was 2.40^[a].

Turning to `O=C(NCC(F)(F)c1ccc(-c2ccncc2Cl)cc1Cl)c1cc(-c2ccncc2Cl)ncc1Oc1cccc(C(F)(F)F)c1` [Compound I-172], the LogP was 4.33^[a].

With `C#Cc1cc(C(=O)NCC(F)c2ccc(Cl)cc2Cl)c(Oc2cccc(C(F)(F)F)c2)cn1` (racemic) [Compound I-189], the LogP is 4.41^[a].

Consider `COC(=O)Cc1cccc(Oc2cnc(Cl)cc2C(=O)NCCc2ccc(C)cc2C)c1` [Compound I-196], for which the LogP is 4.17^[a].

`Cc1ccc(CCNC(=O)c2cc(Cl)ncc2Oc2cc(F)c(F)cc2F)c(C)c1` [Compound I-233]: the LogP was 4.42^[a].

In the case of `Cc1ccc(CCNC(=O)c2cc(Cl)ncc2Oc2cccc(F)c2F)c(C)c1` [Compound I-226], the LogP is 4.38^[a].

For `O=C(NCC(F)c1ccc(Cl)cc1Cl)c1cc(Cl)ncc1Oc1cccc(C2CC2)c1F` (racemic) [Compound I-060], the LogP was 5.17^[a].

Take `O=C(NCC(F)(F)c1ccc(-c2ccncc2Cl)cc1Cl)c1cc(Cl)ncc1Oc1cccc(C(F)(F)F)c1` [Compound I-266]: the LogP is 4.51^[a].

On to `COc1cccc(Oc2cnc(C)cc2C(=O)NCCc2ccc(C)cc2C)c1` [Compound I-180], for which the LogP is 3.50^[a].

`COC(=O)c1cc(C#C[Si](C)(C)C)ncc1Oc1cccc(C(F)(F)F)c1` [Compound 1-004]: the LogP is 5.35^[a].

Regarding `Cc1cccc(Oc2cnc(Cl)cc2C(=O)O)c1` [Compound 1-008], the LogP was 2.60^[a].

Regarding `Cc1ccc(CCNC(=O)c2cc(Cl)ncc2Br)c(C)c1` [Compound 3-001, 5-bromo-2-chloro-N-[2-(2,4-dimethylphenyl)ethyl]pyridine-4-carboxamide], the chromatographic logP was 3.4.

Turning to `O=C(c1cc(Cl)ncc1Oc1cccc(C(F)(F)F)c1)N(O)CCc1ccc(Cl)cc1` [Compound I-164], the LogP was 4.01^[a].

Take `Cc1ccc(CCNC(=O)c2cc(C#N)ncc2Oc2cccc(C(F)(F)F)c2)c(C)c1` [Compound I-059]: the LogP is 4.39^[a].

In the case of `COCc1cccc(Oc2cnc(Cl)cc2C(=O)NCCc2ccc(C)cc2C)c1` [Compound I-157], the LogP was 4.33^[a].

With `Cc1cc(C(=O)NC(C)c2cn(C)c3ccccc23)c(Oc2cccc(C(F)(F)F)c2)cn1` (centres unmarked) [Compound I-020], the LogP is 3.64^[a].

Consider `Cc1cnn(CCNC(=O)c2cc(Cl)ncc2Oc2cccc(C(F)(F)F)c2)c1` [Compound I-096], for which the LogP is 3.14^[a].

`COc1cc(C(=O)NCC(F)(F)c2ccc(C)cc2C)c(Oc2cccc(C(F)(F)F)c2)cn1` [Compound I-004]: the LogP is 4.77^[a].

For the molecule `Cc1ccc(CCNC(=O)c2cc(Cl)ncc2Oc2cccc(C)c2F)c(C)c1` [Compound I-131], the LogP was 4.76^[a].

Take `Cc1ccc(CCNC(=O)c2cc(Cl)ncc2Oc2cccc(Cl)c2)c(C)c1` [Compound I-238]: the LogP is 4.74^[a].

Regarding `COc1cccc(Oc2cnc(C)cc2C(=O)NCC(F)(F)c2ccc(C)cc2C)c1` [Compound I-182], the LogP was 3.71^[a].

As to `Cc1ccc(C(F)(F)CNC(=O)c2cc(Cl)ncc2Oc2cccc(C(F)(F)F)c2)c(C)c1` [Compound I-005], the LogP is 4.77^[a].

As to `Cc1ccc(C(F)(F)CNC(=O)c2cc(C3CC3)ncc2Oc2cccc(C3CC3)c2F)c(C)c1` [Compound I-246], the LogP is 5.36^[a].

Turning to `COCCOc1cccc(Oc2cnc(Cl)cc2C(=O)NCCc2ccc(C)cc2C)c1` [Compound I-235], the LogP is 4.27^[a].

As for `C=Cc1c(Cl)ncc(Oc2cccc(C(F)(F)F)c2)c1C(=O)NCC(F)(F)c1ccc(C)cc1C` [Compound I-146], the LogP is 4.93^[a].

Take `Cc1ccc(C(F)(F)CNC(=O)c2c(Oc3cccc(C(F)(F)F)c3)cnc(N3CCCC3)c2I)c(C)c1` [Compound I-231]: the LogP was 5.57^[a].

As to `O=C(NCC(F)(F)c1ccc(C2CC2)cc1Cl)c1cc(Cl)ncc1Oc1cccc(C2CC2)c1` [Compound I-193], the LogP was 5.45^[a].

Take `O=C(O)c1cc(Cl)ncc1Oc1cccc(C(F)(F)F)c1` [Compound 1-001]: the LogP is 2.84^[a].

`Cc1ccc(C(F)(F)CNC(=O)c2cc(Cl)nc(F)c2Oc2cccc(C(F)(F)F)c2)c(C)c1` [Compound I-092]: the LogP was 5.04^[a].

As for `COCCc1ccc(C(F)(F)CNC(=O)c2cc(Cl)ncc2Oc2cccc(C(F)F)c2)c(Cl)c1` [Compound I-203], the LogP was 4.14^[a].

Take `C#Cc1cc(C(=O)O)c(Oc2cccc(C(F)(F)F)c2)cn1` [Compound 1-002]: the LogP is 2.39^[a].

With `Cc1cc(C(=O)NCC(F)(F)c2ccc(Br)cc2Cl)c(Oc2cccc(C(F)F)c2)cn1` [Compound I-236], the LogP was 3.74^[a].

`Cc1cccc(Oc2cnc(C)cc2C(=O)NCC(F)(F)c2ccc(C)cc2C)c1` [Compound I-047]: the LogP is 4.08^[a].

`C#Cc1cccc(Oc2cnc(Cl)cc2C(=O)NCCc2ccc(C)cc2C)c1` [Compound I-129]: the LogP is 4.45^[a].

For the molecule `CCC(=O)N(CCc1ccccc1)C(=O)c1cc(Cl)ncc1Oc1cccc(C(F)(F)F)c1` [Compound I-166], the LogP was 5.08^[a].

Take `O=C(NCC(F)c1ccc(Cl)cc1Cl)c1cc(Cl)ncc1Oc1cccc(C(F)(F)F)c1` (centres unmarked) [Compound I-010]: the LogP was 4.74^[a].

Take `Cc1ccc(C(F)(F)CNC(=O)c2c(Br)cnc(Cl)c2Cl)c(C)c1` [Compound 3-006]: the LogP is 3.98^[a].

With `Cc1ccc(C(F)(F)CNC(=O)c2c(Oc3cccc(Cl)c3)cnc(Cl)c2Cl)c(C)c1` [Compound I-175], the LogP is 4.85^[a].

`O=C(NCC(F)(F)c1ccc(C2CC2)cc1Cl)c1cc(Cl)ncc1Oc1cccc(C2CC2)c1F` [Compound I-075]: the LogP was 5.31^[a].

In the case of `Cc1cccc(Oc2cnc(C)cc2C(=O)NCC(F)c2ccc(C)cc2Cl)c1` (racemic) [Compound I-056], the LogP was 3.96^[a].

Regarding `Cc1ccc(CCNC(=O)c2cc(Cl)ncc2Oc2cccc(C3COC3)c2)c(C)c1` [Compound I-139], the LogP was 3.88^[a].

For the molecule `Cc1ccc(CCNC(=O)c2cc(Cl)ncc2Oc2cccc(-n3ccc(C(F)(F)F)n3)c2)c(C)c1` [Compound I-159], the LogP was 5.03^[a].

Take `Cc1ccc(C(F)(F)CNC(=O)c2cc(Cl)ncc2Oc2cccc(C3CC3)c2)c(C)c1` [Compound I-065]: the LogP was 5.17^[a].

Turning to `Cc1cccc(Oc2cnc(Cl)cc2C(=O)NCC(F)(F)c2ccc(C)cc2C)c1` [Compound I-044], the LogP is 4.85^[a].

Turning to `Cc1ccc(CCNC(=O)c2cc(Cl)ncc2Oc2ccc3ccccc3c2)c(C)c1` [Compound I-168], the LogP is 5.03^[a].

`CSc1cccc(Oc2cnc(Cl)cc2C(=O)NCCc2ccc(C)cc2C)c1F` [Compound I-237]: the LogP is 4.69^[a].

For the molecule `COc1cccc(Oc2cnc(Cl)cc2C(=O)NCC(F)(F)c2ccc(C)cc2Cl)c1` [Compound I-048], the LogP is 3.67^[a].

Turning to `COc1cc(C(=O)NCCc2ccc(C)cc2C)c(Oc2cccc(C(F)(F)F)c2)cn1` [Compound 1-160], the LogP was 4.69^[a].

With `CNc1c(Cl)ncc(Oc2cccc(C(F)(F)F)c2)c1C(=O)NCC(F)(F)c1ccc(C)cc1C` [Compound I-217], the LogP is 4.44^[a].

For the molecule `O=C(NCCc1ccc2c(c1)CCO2)c1cc(Cl)ncc1Oc1cccc(C(F)(F)F)c1` [Compound I-104], the LogP is 3.98^[a].
